Experimental data as given in patent US9107946B2, “Drug combinations comprising a DGAT inhibitor and a PPAR-agonist” (Janssen Pharmaceutica NV, priority 2008, dated 2015).

What was measured:
human DGAT1 = target: T1, human DGAT1 (Homo sapiens, UniProt O75907); assay: DGAT1 FlashPlate assay: inhibition of DGAT1 activity in membrane preparations; format: biochemical; details: human DGAT1 membranes from SF9 cells, [3H]-oleoylCoA, 120 min at 37° C.; for IC50: read-out: pIC50 (-logIC50, 50% inhibition of DGAT1 activity) (converted)
T1 construct: FLAG (N); made in house; host or cells: SF9 insect cells (pFastBac / baculovirus); total cell membranes
T1 sequence (O75907 1-488): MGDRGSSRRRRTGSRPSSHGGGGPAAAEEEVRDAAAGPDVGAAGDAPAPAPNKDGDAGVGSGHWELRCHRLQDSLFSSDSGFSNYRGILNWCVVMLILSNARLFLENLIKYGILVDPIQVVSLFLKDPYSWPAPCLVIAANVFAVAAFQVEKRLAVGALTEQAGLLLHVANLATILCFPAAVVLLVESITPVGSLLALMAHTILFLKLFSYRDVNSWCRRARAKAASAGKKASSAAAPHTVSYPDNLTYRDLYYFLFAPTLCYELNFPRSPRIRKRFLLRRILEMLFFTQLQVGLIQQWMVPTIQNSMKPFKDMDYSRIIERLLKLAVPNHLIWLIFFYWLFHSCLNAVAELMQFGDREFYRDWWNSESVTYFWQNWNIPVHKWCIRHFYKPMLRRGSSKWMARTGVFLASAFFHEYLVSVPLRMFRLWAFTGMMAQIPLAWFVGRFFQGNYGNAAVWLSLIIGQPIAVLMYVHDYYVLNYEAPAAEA
Description: The inhibiting activity of compounds of Class A, Class B, Class C and Class D on DGAT1 activity was screened in a single well procedure assay using DGAT1 comprising membrane preparations and DGAT1 substrate comprising micelles and determining formed radio-active triacylglycerol coming in close proximity of a flashplate surface by radioluminescence.
Said assay is described in full detail in WO2006/067071, the content of which is incorporated herein by reference.
By DGAT1 activity is meant the transfer of coenzyme A activated fatty acids to the 3-position of 1,2-diacylglycerols, thus forming a triglyceride molecule, by enzyme DGAT1.
human DGAT1 (NM012079.2) was cloned into the pFastBac vector, containing translation start, a FLAG-tag at the N-terminus as described in literature and a viral Kozak sequence (AAX) preceding the ATG to improve expression in insect cells. Expression was done as described in literature (Cases, S., Smith, S. J., Zheng, Y., Myers H. M., Lear, S. R., Sande, E., Novak, S., Collins, C., Welch, C. B., Lusis, A. J., Erickson, S. K. and Farese, R. V. (1998) Proc. Natl. Acad. Sci. USA 95, 13018-13023.) using SF9 cells.
72h transfected SF9 cells were collected by centrifugation (13000 rpm-15 min-4° C.) and lysed in 2×500 ml lysisbuffer (0.1M Sucrose, 50 mM KCl, 40 mM KH2PO4, 30 mM EDTA pH 7.2. Cells were homogenized by cell disruptor. After centrifugation 1380 rpm-15 min-4° C. (SN discarded), pellet was resuspended in 500 ml lysisbuffer and total cell membranes collected by ultracentrifugation at 34000 rpm(100 000 g) for 60 min (4° C.). The collected membranes were resuspended in lysis buffer, divided in aliquots and stored with 10% glycerol at −80° C. until use.
• a) 1,2-dioleoyl-sn-glycerol, 10 mg/ml (1,2-diacylglycerol (DAG)) Dissolve in acetonitrile; evaporate the acetonitrile solution under nitrogen and reconstitute in chloroform at a final concentration of 10 mg/ml. • b) L-α-phosphatidylcholine, 1 mg/ml (phosphatidylcholine (PC)) • Dissolve in chloroform at a final concentration of 1 mg/ml and store at 4° C. • c) L-α-phosphatidyl-L-serine, 1 mg/ml (phophatidylserine (PS)) • Dissolve in chloroform at a final concentration of 1 mg/ml and store at 4° C. Method
Add 1 ml dioleoyl-sn-glycerol (10 mg/ml) to 10 ml of L-α-phosphatidylcholine (1 mg/ml) and 10 ml of L-α-phosphatidyl-L-serine (1 mg/ml) in a thick glass recipient. Evaporate under nitrogen and put on ice for 15 min Reconstitute in 10 ml Tris/HCl (10 mM, pH 7.4) by sonication on ice. The sonification process includes sonification cycles of 10 seconds in the sonification bath followed by 10 seconds cool down on ice and repeating this sonification cycle till a homogeneous solution is obtained (takes about 15 min). The thus obtained micelles are stored at −20° C. till later use and contain DAG at a final concentration of 1.61 mM.
• a) Assaybuffer • 50 mM Tris-HCl (pH 7.4), 150 mM MgCl2, 1 mM EDTA, 0.2% BSA. • b) N-ethylmaleimide, 5M • Dissolve 5 g into a final volume of 8 ml DMSO 100% and store at −20° C. in aliquots till later use. • c) Substrate mix (for 1 384 well plate=3840 μl) • 612 μl micelles stock (51 μM final) • 16.6 μl oleoylCoA 9.7 mM • 23 μl [^3H]-oleoylCoA (49 Ci/mmol, 500 μCi/ml) • 3188.4 μl Tris pH 7.4, 10 mM • d) Enzyme mix (for 1 384 well plate=3520 μl) (5 μg/ml) • Add 11.73 μl of DGAT membrane stock (1500 μg/ml stock) to 3508 μl assay buffer. • e) Stop mix (for 1 384 well plate=7.68 ml) (250 mM) • Add 384 μl of N-ethylmaleimide (5M) to 3.456 ml DMSO 100%, and further dilute 3.84 ml of said solution with 3.84 ml DMSO 10%. Method
DGAT activity in membrane preparations was assayed in 50 mM Tris-HCl (pH 7.4), 150 mM MgCl2, 1 mM EDTA and 0.2% BSA, containing 50 μM DAG, 32 μg/ml PC/PS and 8.4 μM [^3H]-oleoylCoA (at a specific activity of 30 nCi/well) in a final volume of 50 μl in 384-well format using the red shifted Basic Image FlashPlate™ (Perkin Elmer Cat.No. SMP400). […]

Compound	melting point	IC50 (human DGAT1)	pIC50 (-logIC50, 50% inhibition of DGAT1 activity) (human DGAT1)
O=C(Nc1cccc(N2CCCC2)c1)c1ccc(N2CCN(C(=O)Cc3c(Cl)cc(CN4CCCC4)cc3Cl)CC2)cc1 [147-Class C, 4-[4-[[2,6-dichloro-4-(1-pyrrolidinylmethyl)phenyl]acetyl]-1-piperazinyl]-N-[3-(1-pyrrolidinyl)phenyl]-benzamide]	262 to 263 °C	38.9 nM	–
CS(=O)(=O)N1CCN(Cc2cc(Cl)c(CC(=O)N3CCN(c4ccc(C(=O)Nc5cccc(N6CCCC6)c5)cc4)CC3)c(Cl)c2)CC1 [150-Class C, 4-[4-[[2,6-dichloro-4-[[4-(methylsulfonyl)-1-piperazinyl]methyl]phenyl]acetyl]-1-piperazinyl]-N-[3-(1-pyrrolidinyl)phenyl]-benzamide]	240 to 242 °C	6.03 nM	–
COc1cc(CNC(=O)c2ccc(N3CCN(C(=O)Cc4c(Cl)cc(CN5CCN(C(C)=O)CC5)cc4Cl)CC3)cc2)cc(OC)c1 [362-Class D, 4-[4-[[4-[(4-acetyl-1-piperazinyl)methyl]-2,6-dichlorophenyl]acetyl]-1-piperazinyl]-N-[(3,5-dimethoxyphenyl)methyl]-benzamide]	123 to 126 °C	9.12 nM	–
O=C(NCc1cccc(N2CCCC2)c1)c1ccc(N2CCN(C(=O)Cc3ccc(CN4CCCC4)cc3Cl)CC2)cc1 [354-Class D, 4-[4-[[2-chloro-4-(1-pyrrolidinylmethyl)phenyl]acetyl]-1-piperazinyl]-N-[[3-(1-pyrrolidinyl)phenyl]methyl]-benzamide]	206.3 to 209.4 °C	646 nM	–
O=C(NCc1cccc(N2CCCC2)c1)c1ccc(N2CCN(C(=O)Cc3c(Cl)cc(CN4CCCC4)cc3Cl)CC2)cc1 [267-Class D, 4-[4-[[2,6-dichloro-4-(1-pyrrolidinylmethyl)phenyl]acetyl]-1-piperazinyl]-N-[[3-(1-pyrrolidinyl)phenyl]methyl]-benzamide]	–	–	6.97
CC(=O)N1CCN(Cc2cc(Cl)c(CC(=O)N3CCN(c4ccc(C(=O)Nc5cccc(N6CCCC6)c5)cc4)CC3)c(Cl)c2)CC1 [149-Class C, 4-[4-[[4-[(4-acetyl-1-piperazinyl)methyl]-2,6-dichlorophenyl]acetyl]-1-piperazinyl]-N-[3-(1-pyrrolidinyl)phenyl]-benzamide]	250 to 252 °C	6.17 nM	–
COc1cc(CNC(=O)c2ccc(N3CCN(C(=O)C(O)c4ccc(CN5CCCC5)cc4Cl)CC3)cc2)cc(OC)c1 (centres unmarked) [357-Class D, 4-[4-[[2-chloro-4-(1-pyrrolidinylmethyl)phenyl]hydroxyacetyl]-1-piperazinyl]-N-[(3,5-dimethoxyphenyl)methyl]-benzamide]	–	55 nM	–
COc1ccc(CC(=O)Nc2ccc(N3CCN(C(=O)C(O)c4ccc(CN5CCCC5)cc4Cl)CC3)cc2)cc1 (centres unmarked) [352-Class D, N-[4-[4-[[2-chloro-4-(1-pyrrolidinylmethyl)phenyl]hydroxyacetyl]-1-piperazinyl]phenyl]-4-methoxy-benzeneacetamide]	–	–	6.45
COc1cc(CNC(=O)c2ccc(N3CCN(C(=O)Cc4ccc(CN5CCCC5)cc4Cl)CC3)cc2)cc(OC)c1 [353-Class D, 4-[4-[[2-chloro-4-(1-pyrrolidinylmethyl)phenyl]acetyl]-1-piperazinyl]-N-[(3,5-dimethoxyphenyl)methyl]-benzamide]	126.6 to 128.1 °C	257 nM	–
CS(=O)(=O)N1CCN(Cc2cc(Cl)c(CC(=O)N3CCN(c4ccc(C(=O)NCc5cccc(N6CCCC6)c5)cc4)CC3)c(Cl)c2)CC1 [363-Class D, 4-[4-[[2,6-dichloro-4-[[4-(methylsulfonyl)-1-piperazinyl]methyl]phenyl]acetyl]-1-piperazinyl]-N-[[3-(1-pyrrolidinyl)phenyl]methyl]-benzamide]	241 to 243 °C	11.5 nM	–
COc1ccc(CC(=O)Nc2ccc(N3CCN(C(=O)Cc4c(Cl)cc(CN5CCCC5)cc4Cl)CC3)cc2)cc1 [351-Class D, N-[4-[4-[[2,6-dichloro-4-(1-pyrrolidinylmethyl)phenyl]acetyl]-1-piperazinyl]phenyl]-4-methoxy-benzeneacetamide]	–	–	6.62
CC(=O)N1CCN(Cc2cc(Cl)c(CC(=O)N3CCN(c4ccc(C(=O)NCc5cccc(N6CCCC6)c5)cc4)CC3)c(Cl)c2)CC1 [361-Class D, 4-[4-[[4-[(4-acetyl-1-piperazinyl)methyl]-2,6-dichlorophenyl]acetyl]-1-piperazinyl]-N-[[3-(1-pyrrolidinyl)phenyl]methyl]-benzamide]	164 to 166 °C	13.5 nM	–
CCN1CCN(Cc2cc(Cl)c(CC(=O)N3CCN(c4ccc(C(=O)Nc5cccc(N6CCCC6)c5)cc4)CC3)c(Cl)c2)CC1 [148-Class C, 4-[4-[[2,6-dichloro-4-[(4-ethyl-1-piperazinyl)methyl]phenyl]acetyl]-1-piperazinyl]-N-[3-(1-pyrrolidinyl)phenyl]-benzamide]	180 to 182 °C	9.12 nM	–
O=C(NCc1cccc(N2CCCC2)c1)c1ccc(N2CCN(C(=O)C(O)c3ccc(CN4CCCC4)cc3Cl)CC2)cc1 (centres unmarked) [356-Class D, 4-[4-[[2-chloro-4-(1-pyrrolidinylmethyl)phenyl]hydroxyacetyl]-1-piperazinyl]-N-[[3-(1-pyrrolidinyl)phenyl]methyl]-benzamide]	134.4 to 137 °C	74.1 nM	–
COc1cc(CNC(=O)c2ccc(N3CCN(C(=O)Cc4c(Cl)cc(CN5CCN(S(C)(=O)=O)CC5)cc4Cl)CC3)cc2)cc(OC)c1 [364-Class D, 4-[4-[[2,6-dichloro-4-[[4-(methylsulfonyl)-1-piperazinyl]methyl]phenyl]acetyl]-1-piperazinyl]-N-[(3,5-dimethoxyphenyl)methyl]-benzamide]	152 to 154 °C	5.75 nM	–
